≈ marks a conversion by molar mass, not a printed value.
Columns and labels:
Colo-205 (Colon cancer) = assay: MTT assay, Colo-205; type: cell-based; settings: MTT, 48 hrs; for IC50: Homo sapiens, COLO 205, read-out: Colo-205 IC50
Protocol: (§1) A431 (Skin cancer), Colo-205 (Colon cancer), A549 (Lung cancer) cell lines were obtained from National Center for Cell science (NCCS), Pune, India. DMEM (Dulbeccos Modified Eagles Medium), MTT [3-(4,5-dimethylthiazol-2-yl)-2,5-diphenyl tetrazolium bromide], Trypsin, EDTA were purchased from Sigma Chemicals Co (St. Louis, Mo.), Fetal bovine serum were purchased from Arrow labs, 96 well flat bottom tissue culture plates were purchased from Tarson.
(§2) A431, Colo-205, A549 cell lines were grown as adherent cells in DMEM media supplemented with 10% fetal bovine serum, 100 μg/ml penicillin, 200 μg/ml streptomycin, 2 mM L-glutamine, and culture was maintained in a humidified atmosphere with 5% CO2. Stock solution of 10 mg/ml was prepared for test molecules in DMSO. From the stock, various dilutions were made with sterile water to get required concentration. A431, Colo-205, A549 cell lines were seeded at a density of 1×10^4 cells (cell number was determined by Trypan blue exclusion dye method) per each well in 100 μl of DMEM supplemented with 10% FBS. 12 hrs after seeding, above media was replaced with fresh DMEM supplemented with 10% FBS. Then, 10 μl sample from above stock solutions were added to each well in triplicates which gives final concentration of 100, 50, 25, 10 μg/well. The above cells were incubated for 48 hrs at 37° C. with 5% CO2. After 48 hrs incubation the above media was replaced with 100 μl of fresh DMEM with out FBS and to this 10 μl of MTT (5 mg dissolved in 1 ml of PBS) was added and incubated for 3 hrs at 37° C. with 5% CO2. After 3 hrs of incubation, the above media was removed with multi channel pipette, then 200 μl of DMSO was added to each well and incubated at 37° C. for 15 min. Finally, the plate was read at 570 nm using spectrophotometer (Spectra Max, Molecular devices).

A549 (Lung cancer) = assay: MTT assay, A549; type: cell-based; settings: MTT, 48 hrs; for IC50: Homo sapiens, A549, read-out: A549 IC50
Protocol: as §1, §2

[1] = tested on: crude intestinal α-glucosidase; assay: In-vitro mammalian (rat intestinal) α-glucosidase inhibition assay; type: biochemical; settings: for Mammalian α Glucosidase Inhibition (Mean ± S.E): highest concentration 5 mg/ml; for IC50: mammalian α-glucosidase, dose response study
How it was run: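 p-Nitrophenol release (405 nm) from 5 mM p-nitrophenyl glucoside, read 5 min after substrate addition following 5 min sample–enzyme preincubation in pH 6.8 phosphate buffer. Enzymes: baker's yeast α-glucosidase (0.76 U/ml) and sonicated rat intestinal acetone powder supernatant. Blank-corrected inhibition vs DMSO; IC50 by log regression.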

[2] = target: T1, porcine pancreatic α-amylase (Sus scrofa, UniProt P00690); assay: α-Amylase inhibition assay; type: biochemical; settings: for Maltose released: a/b marks the respective control (Control-1 2.147, Control-2 3.429); for inhibition at 10000 µg/mL (stock): 0.05 h
T1 construct: α-amylase [EC 3.2.1.1) Type VI B: from porcine pancreas]; purchased Sigma Chemical Co., St Louis, Mo., USA; host or cells: porcine pancreas (natural source)
T1 sequence (P00690 16-511): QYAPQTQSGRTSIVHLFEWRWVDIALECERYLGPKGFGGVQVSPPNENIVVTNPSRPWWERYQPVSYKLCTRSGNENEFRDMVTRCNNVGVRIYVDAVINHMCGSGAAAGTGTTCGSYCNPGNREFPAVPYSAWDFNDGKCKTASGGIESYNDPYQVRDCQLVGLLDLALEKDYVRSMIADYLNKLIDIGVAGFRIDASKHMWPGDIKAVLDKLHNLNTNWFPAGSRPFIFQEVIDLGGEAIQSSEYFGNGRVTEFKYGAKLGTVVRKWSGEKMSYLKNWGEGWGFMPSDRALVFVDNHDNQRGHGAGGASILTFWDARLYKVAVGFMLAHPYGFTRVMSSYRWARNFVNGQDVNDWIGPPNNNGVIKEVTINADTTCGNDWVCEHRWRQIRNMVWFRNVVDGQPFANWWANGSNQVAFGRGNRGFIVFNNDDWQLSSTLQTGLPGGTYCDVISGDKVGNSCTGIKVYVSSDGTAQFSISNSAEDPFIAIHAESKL
Description: Chemicals: α-Glucosidase [(EC 3.2.1.20) Type I: from bakers yeast], rat intestinal acetone powder (as a source of crude intestinal α-glucosidase), α-amylase [EC 3.2.1.1) Type VI B: from porcine pancreas], p-nitrophenyl α-D-glucopyranoside, 3,5-dinitro salicylic acid, soluble potato starch and 1-deoxyrojirimycine, were purchased from Sigma Chemical Co., St Louis, Mo., USA. Other chemicals of analytical grade were procured from indigenous manufacturers.
a-Amylase Inhibition Assay: The assay method was adopted from Ali et al. (2006) and modified accordingly to suite microplate reading. In brief, 40 μL of test samples (10 mg/mL DMSO) were reconstituted in 160 μL of 20 mM phosphate buffer (pH 6.9) containing 6.7 mM sodium chloride in 2 mL Eppendorf tubes and incubated with 200 μL of porcine pancreatic α-amylase) (4 U/mL prepared in ice cold distilled water) for 5 min. The reaction was started by the addition of 400-μL soluble potato starch solution (0.5% w/v in 20 mM phosphate buffer, pH 6.9). Exactly 3 min after incubation, 400 μL DNS color reagent (1.0 g of 3,5-dinitrosalicylic acid, 30 g of sodium potassium tartrate and 20 mL of 2 N NaOH to a final volume of 100 mL in distilled water) was added. Closed tubes were placed in a water bath (85-90° C.) for 10 min to develop color and cooled thereafter. 50 μL of reaction mixtures was diluted with 175 μL of distilled water in a 96-well microplate. α-Amylase activity was determined by measuring the absorbance of the mixture at 540 nm spectrophotometrically as above. Individual blanks were prepared to correct for the background absorbance due to test samples. In this case DNS solution was added in tubes before addition of substrate. The percentage inhibition of enzyme activity was calculated as above. All the tests were run in duplicate in this assay.

[3] = 10 mg per ml, calculated from maltose released vs respective control

Compound	Colo-205 IC50 (Colo-205 (Colon cancer))	IC50 (A549 (Lung cancer)) [µg/mL]	Mammalian α-glucosidase inhibitory activity (in words) [1]	Mammalian α-glucosidase inhibition (Mean ± S.E) ([1]; 0.039063 mg/ml) [%]	Mammalian α-glucosidase inhibition (Mean ± S.E) ([1]; 0.078125 mg/ml) [%]	Mammalian α-glucosidase inhibition (Mean ± S.E) ([1]; 0.15625 mg/ml) [%]	Mammalian α-glucosidase inhibition (Mean ± S.E) ([1]; 0.3125 mg/ml) [%]	Mammalian α-glucosidase inhibition (Mean ± S.E) ([1]; 0.625 mg/ml) [%]	Mammalian α-glucosidase inhibition (Mean ± S.E) ([1]; 1.25 mg/ml) [%]	Mammalian α-glucosidase inhibition (Mean ± S.E) ([1]; 2.5 mg/ml) [%]	Mammalian α-glucosidase inhibition (Mean ± S.E) ([1]; 5 mg/ml) [%]	Mammalian α Glucosidase Inhibition (Mean ± S.E) [1] [%]	IC50 [1] [mg/mL]	Alpha amylase inhibitory activity (in words) ([2]; 10 mg per ml)	Maltose released ([2]; 10 mg per ml) [mg/mL]	inhibition at 10000 µg/mL (stock) [2, 3] [%]	IC50 (Colo-205 (Colon cancer)) [µg/mL]	A549 IC50 (A549 (Lung cancer)) [µg/mL]	% Inhibition [2, 3] [%]	Maltose release ([2]; end of the reaction, vs control maltose release)
CC1CCc2c(nc3sc4c(c3c2N)CCC4)C1 (stereo not drawn) [BN-15, 7-Methyl-2,3,6,7,8,9-hexahydro-1H-cyclopenta[4,5]thieno[2,3-b]quinolin-10-amine]	No activity	72.4 (≈ 280 µM)	significant inhibitory activity	11.85 ± 3.45	31.57 ± 2.74	40.72 ± 2.26	52.37 ± 1.64	61.83 ± 0.26	78.49 ± 1.88	83.34 ± 3.13	88.87 ± 1.35	88.87	0.299 (≈ 1160 µM)	strong inhibitory activity	1.179	46.7				
Nc1c2c(nc3sc4c(c13)CCC4)CCCCC2 [BN-16, 1,2,3,6,7,8,9,10-Octahydrocyclohepta[b]cyclopenta[4,5]thieno[3,2-e]pyridine-11-amine]		39.8 (≈ 154 µM)										4.46 ± 1.77		mild inhibition	1.492	31.5	123 (≈ 476 µM)			
Nc1c2c(nc3sc4c(c13)CCC4)CCCCCC2 [BN-17, 2,3,6,7,8,9,10,11-Octahydro-1H-cycloocta [b]cyclopenta[4,5]thieno[3,2-e]pyridin-12-amine]	61.65 µg/mL		significant inhibitory activity	10.04 ± 4.42	26.77 ± 1.83	34.53 ± 2.61	44.41 ± 1.52	52.44 ± 1.56	66.57 ± 1.11	70.69 ± 2.75	75.39 ± 13.76	75.39	0.528 (≈ 1940 µM)	strong inhibitory activity	1.028			40.7	53.92	
Nc1c2c(nc3sc4c(c13)CCCCC4)CCC2 [BN-18, 1,2,3,6,7,8,9,10-Octahydrocyclohepta[4,5] thieno[2,3-b]cyclopenta [e]pyridin-11-amine]		39.8 (≈ 154 µM)	moderate inhibitory activity									46.22 ± 4.15			3.972	-16.2	47.8 (≈ 185 µM)			more than control
